Test results reported in patent publication US9226882B2, “Eco-friendly non-aqueous antimicrobial composition comprising tropolone with 1,3-propanediol and/or sorbitan caprylate” (ISP INVESTMENTS INC., priority 2012, dated 2016).
In brackets after ≈: the same amount, converted by molar mass.

Columns and labels:
[1] = tested on: Trichoderma viride (DSM 63064); test: MIC study on agar, fungal strain; type: cell-based
Description: (§1) Equal amounts of mixtures were poured into four Petri dishes. After cooling, the Petri dishes were inoculated with the respective standard strains. During the experiment, the Petri dishes were kept for 2 to 3 weeks at room temperature of about 20 to 25° C. in the dark. The following two different types of culture media were employed for the present studies: • i. […] The preferred bacterial strains for the present application are Pseudomonas aeruginosa (DSM 1128), Staphylococcus aureus (DSM 799), E. Coli (DSM 1576), Proteus mirabilis (DSM 788) and Burkholderia cepacia (DSM 7288), and the preferred fungal strains are Aspergillus brasiliensis (DSM 1988), Penicillium expansum (DSM 1282), Trichoderma viride (DSM 63064), and the yeast is Candida albicans, (DSM 1386). After 2nd and 3rd weeks macroscopic evaluations were performed, the ratings are as follows: The formulation under examination is considered to be efficient if the following conditions are duly fulfilled i.e. (i) after 2-3 weeks no growth of the tested culture is visible; (ii) with rising concentration of the tested formulation, the germ growth should macroscopically be reduced until it is not visible any more.

[2] = tested on: Aspergillus brasiliensis (DSM 1988); test: MIC study on agar, fungal strain; type: cell-based
Description: as §1

[3] = tested on: Penicillium expansum (DSM 1282); test: MIC study on agar, fungal strain; type: cell-based; conditions: DSM1282, Penicillim expansum, Malt extract-Agar (3%) pH 5.6, 2 to 3 weeks at 20 to 25° C. in the dark
Description: as §1

E. Coli (DSM 1576) = test: MIC study on agar, bacterial strain; type: cell-based, Escherichia coli
Description: as §1

[4] = tested on: Proteus mirabilis (DSM 788); test: MIC study on agar, bacterial strain; type: cell-based; conditions: DSM788, Caso-Agar pH 7.3, 2 to 3 weeks at 20 to 25° C. in the dark
Description: as §1

[5] = tested on: Staphylococcus aureus (DSM 799); test: MIC study on agar, bacterial strain; type: cell-based; conditions: DSM799, Caso-Agar pH 7.3, 2 to 3 weeks at 20 to 25° C. in the dark
Description: as §1

[6] = tested on: Burkholderia cepacia (DSM 7288); test: MIC study on agar, bacterial strain; type: cell-based
Description: as §1

[7] = tested on: Pseudomonas aeruginosa (DSM 1128); test: MIC study on agar, bacterial strain; type: cell-based; conditions: DSM1128, Caso-Agar pH 7.3, 2 to 3 weeks at 20 to 25° C. in the dark
Description: as §1

[8] = tested on: Candida albicans, (DSM 1386); test: MIC study on agar, yeast strain; type: cell-based; conditions: DSM1386, Candida albican, Malt extract-Agar (3%) pH 5.6, 2 to 3 weeks at 20 to 25° C. in the dark
Description: as §1

MIC ([1]; DSM63064, Trichoderma viride, Malt extract-Agar (3%) pH 5.6, 2 to 3 weeks at 20 to 25° C. in the dark): 250 µg/mL (≈ 2050 µM) | reduction of MIC level of tropolone ([1]; by sorbitan caprylate (Velsan SC), against Trichoderma viride): > 50% | MIC ([2]; DSM1988, Aspergillus brasiliensis, Malt extract-Agar (3%) pH 5.6, 2 to 3 weeks at 20 to 25° C. in the dark): 50 µg/mL (≈ 409 µM) | reduction of MIC level of tropolone ([2]; by sorbitan caprylate (Velsan SC), against Aspergillus brasiliensis): > 50% | MIC [3]: 100 µg/mL (≈ 819 µM) | MIC (E. Coli (DSM 1576); DSM1576, Escherichia coli, Caso-Agar pH 7.3, 2 to 3 weeks at 20 to 25° C. in the dark): 250 µg/mL (≈ 2050 µM) | reduction of MIC level of tropolone (E. Coli (DSM 1576); in presence of 1,3-propanediol (Zemea), against Escherichia coli): > 50% | MIC [4]: 250 µg/mL (≈ 2050 µM) | MIC [5]: 250 µg/mL (≈ 2050 µM) | MIC ([6]; DSM7288, Burkholderia cepacia, Caso-Agar pH 7.3, 2 to 3 weeks at 20 to 25° C. in the dark): 250 µg/mL (≈ 2050 µM) | reduction of MIC level of tropolone ([6]; by sorbitan caprylate (Velsan SC), against Burkholderia cepacia): > 90% | MIC [7]: 500 µg/mL (≈ 4090 µM) | MIC [8]: 20 µg/mL (≈ 164 µM)
Structure (SMILES): O=c1cccccc1O [Tropolone, 2-Hydroxy-2,4,6-cycloheptatrien-1-one]
